Laboratory results reported in ChEMBL document CHEMBL1201862, “PubChem BioAssay data set” (2004).
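Cultured in 96-well plates, cells were exposed to test compound for 48 hours across five concentrations. Here, GI50 denotes the concentration required for 50% inhibition of growth.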 Active and inactive are the calls of the source. Cut-off read from the data, not from the text of the source: active = GI50 up to about 1.1 µM and inactive = higher.

What was measured:
Test in all cases: NCI anticancer screen, dose series, 48 h
[1] = system: HT-29
[2] = system: OVCAR-3
[3] = system: CAKI-1
[4] = system: OVCAR-5
[5] = system: MOLT-4
[6] = system: UO-31
[7] = system: KM12
[8] = system: SNB-75
[9] = system: HCT-15
[10] = system: SK-MEL-5
[11] = system: SK-OV-3
[12] = system: TK-10
[13] = system: Malme-3M
[14] = system: SF-539
[15] = system: SK-MEL-28
[16] = system: HOP-62
[17] = system: UACC-62
[18] = system: NCI-H23

Structure (SMILES)	GI50 [1]	GI50 [2]	GI50 [3]	GI50 [4]	GI50 [5]	GI50 [6]	GI50 [7]	GI50 [8]	GI50 [9] [µM]	GI50 [10]	GI50 [11]	GI50 [12]	GI50 [13]	GI50 [14]	GI50 [15]	GI50 [16]	GI50 [17]	GI50 [18]
COc1cc(OC)c2c(O)cc(CC(C)O)cc2c1 (configuration not stated)	92.5 µM (inactive)	> 100 µM (inactive)	> 100 µM (inactive)	> 100 µM (inactive)	> 100 µM (inactive)	> 100 µM (inactive)	> 100 µM (inactive)	> 100 µM (inactive)	> 100	> 100 µM (inactive)	> 100 µM (inactive)	> 100 µM (inactive)	> 100 µM (inactive)	> 100 µM (inactive)	> 100 µM (inactive)	> 100 µM (inactive)	> 100 µM (inactive)	> 100 µM (inactive)
CCC1=CC2CN3CCc4c([nH]c5ccccc45)C(C(=O)OC)(C2)C13 (configuration not stated)	22.7 µM (inactive)	42.8 µM (inactive)	20.8 µM (inactive)	7.4 µM (inactive)	39.8 µM (inactive)	32.2 µM (inactive)	20 µM (inactive)	48.4 µM (inactive)	44.2	40.7 µM (inactive)	69.3 µM (inactive)		50.4 µM (inactive)	50.9 µM (inactive)	53.3 µM (inactive)	43.6 µM (inactive)	37.8 µM (inactive)	45.6 µM (inactive)
COc1cccc2c1C(=O)c1c(O)c3c(c(O)c1C2=O)C[C@](O)(C(=O)CO)CC3OC1CC(N)C(OC2CCCCO2)C(C)O1 (some centres not stated)	0.229 µM (active)	0.828 µM (active)	0.0353 µM (active)	0.293 µM (active)	< 0.01 µM (active)	1.48 µM (inactive)	0.375 µM (active)	0.243 µM (active)	0.47	0.115 µM (active)	0.531 µM (active)		0.0752 µM (active)	0.123 µM (active)	1.4 µM (inactive)	0.212 µM (active)	0.208 µM (active)	0.051 µM (active)
NC1=NC(c2ccccc2)CC(c2cc(Cl)cc(Br)c2O)=N1 (configuration not stated)	13.5 µM (inactive)	15.8 µM (inactive)	13.3 µM (inactive)	19.6 µM (inactive)	3.1 µM (inactive)	16.4 µM (inactive)	11 µM (inactive)	14 µM (inactive)	7.64	11.7 µM (inactive)	24.7 µM (inactive)	18.8 µM (inactive)	4.55 µM (inactive)	12.2 µM (inactive)	13.1 µM (inactive)	10.4 µM (inactive)	10.1 µM (inactive)	10.8 µM (inactive)
O=C(c1ccccc1)c1c(CC(O)c2ccncc2)n(C(=O)c2ccccc2)c2ccccc12 (configuration not stated)	17.3 µM (inactive)	14 µM (inactive)	22.3 µM (inactive)	15.8 µM (inactive)	18.2 µM (inactive)	14.6 µM (inactive)	19.2 µM (inactive)	7.83 µM (inactive)	17.4	16.1 µM (inactive)		28.6 µM (inactive)	18 µM (inactive)	17.9 µM (inactive)	17.7 µM (inactive)	16.4 µM (inactive)	16.5 µM (inactive)	16 µM (inactive)
C=CCN1C(=O)NC(=O)/C(=C/c2c3ccccc3cc3ccccc23)C1=O	20.7 µM (inactive)	18.9 µM (inactive)	19.5 µM (inactive)	20.5 µM (inactive)	17.9 µM (inactive)	20.6 µM (inactive)	16.2 µM (inactive)	21.3 µM (inactive)		> 10 µM (inactive)	29.9 µM (inactive)	20 µM (inactive)	18.6 µM (inactive)	16.7 µM (inactive)	22.4 µM (inactive)	17.3 µM (inactive)	18 µM (inactive)	> 10 µM (inactive)
Cn1cc2ccccc2c1-c1nc(F)nc(Nc2ccc(N)cc2)n1	21.5 µM (inactive)	20.8 µM (inactive)	15 µM (inactive)	26.4 µM (inactive)	17.5 µM (inactive)	17.3 µM (inactive)	14 µM (inactive)	11.9 µM (inactive)	4.97	11.5 µM (inactive)	11.6 µM (inactive)	34.3 µM (inactive)	14.4 µM (inactive)	15.8 µM (inactive)	15.5 µM (inactive)	16.6 µM (inactive)		15.8 µM (inactive)
CC1=C2N3C[C@@H](n4c(=O)n(C)c(=O)n43)C23CCC1n1c(=O)n(C)c(=O)n13	> 100 µM (inactive)		> 100 µM (inactive)	> 100 µM (inactive)	> 100 µM (inactive)	> 100 µM (inactive)	> 100 µM (inactive)	> 100 µM (inactive)	24.7	> 100 µM (inactive)		> 100 µM (inactive)	> 100 µM (inactive)	> 100 µM (inactive)	> 100 µM (inactive)	> 100 µM (inactive)	> 100 µM (inactive)	> 100 µM (inactive)
